A value given as a limit tells only on which side of the number the result lay.

Consider three compounds from patent US12246091B2, “Method of encapsulating active ingredients in liposomes” (ABNOBA GMBH, priority 2018, dated 2025).

This data set in a line: Solubility of the amphiphilic compound in the first liquid perfluoroperhydrophenanthrene (C14F24). The conditions noted are these: for solubility: perfluoroperhydrophenanthrene (C14F24), organic solvent or mixture.

The solubility is the dissolved amount per volume that the medium holds. For `CC(C)CCC[C@@H](C)[C@H]1CC[C@H]2[C@@H]3CC=C4C[C@@H](O)CC[C@]4(C)[C@H]3CC[C@]12C` [cholesterol], the solubility is < 10 µM.
With `CCCCCCCCCCCCCCCCCC(=O)OC[C@H](COP(=O)([O-])OCC[N+](C)(C)C)OC(=O)CCCCCCCCCCCCCCCCC` [DSPC, distearoylphosphatidylcholine], under “in perfluoroperhydrophenanthrene (C14F24, CAS 306-91-2), bound is the detection limit”, the “Solubility in C14F24” value is reported as < 10^−5 mol/l.
With `CCCCCCCCCCCCCCCC(=O)OC[C@H](COP(=O)([O-])OCC[N+](C)(C)C)OC(=O)CCCCCCCCCCCCCCC` [DPPC, dipalmitoylphosphatidylcholine], the solubility is < 10 µM.
